Active and inactive are the calls of the source.
Experiments:
Kallikrein-7 = Kallikrein-7 (Homo sapiens, UniProt P49862); assay: Fluorescence Intensity-based biochemical primary high throughput dose response assay to identify activators of kallikrein-7 (K7) zymogen.
Prothrombin = Prothrombin (Homo sapiens, UniProt P00734); assay: Thrombin 1536 HTS Dose Response Confirmation. [Related pubchem assays: 1046 (Thrombin 1536 HTS; hits were confirmed in this assay)]; format: functional
[1] = inhibitors of intracellular T. cruzi replication, confirmation, NIH3T3 host cells, beta-gal luminescence (AID 2044); format: functional, cell-based;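 also: intracellular parasites grown in NIH/3T3 mouse fibroblasts as host cells; luminescent beta-galactosidase reporter signal from transgenic T. cruzi replicating inside host cells; inhibitors lower the luminescence signal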
[2] = cytotoxicity toward NIH3T3 fibroblasts, dose response, counter-screen, cell-based, ATP luminescence, mouse fibroblasts (AID 2010); format: functional;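 also: cells exposed to compound for about 90 hours before reading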
cells [3] = assay: cells
[4] = molecular target: T1, Heat shock factor protein 1 (Mus musculus, UniProt P38532); assay: inhibition of MG132-induced HSE-luciferase signal, confirmation, cell-based, NIH3T3, luminescence, dose retest (AID 2382); format: functional;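 also: NIH3T3 fibroblasts with HSF1-driven luciferase reporter stressed by proteasome inhibitor MG132; luminescence from HSF1-driven luciferase expression after 8 hours of MG132 stress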
T1 sequence (P38532 whole entry): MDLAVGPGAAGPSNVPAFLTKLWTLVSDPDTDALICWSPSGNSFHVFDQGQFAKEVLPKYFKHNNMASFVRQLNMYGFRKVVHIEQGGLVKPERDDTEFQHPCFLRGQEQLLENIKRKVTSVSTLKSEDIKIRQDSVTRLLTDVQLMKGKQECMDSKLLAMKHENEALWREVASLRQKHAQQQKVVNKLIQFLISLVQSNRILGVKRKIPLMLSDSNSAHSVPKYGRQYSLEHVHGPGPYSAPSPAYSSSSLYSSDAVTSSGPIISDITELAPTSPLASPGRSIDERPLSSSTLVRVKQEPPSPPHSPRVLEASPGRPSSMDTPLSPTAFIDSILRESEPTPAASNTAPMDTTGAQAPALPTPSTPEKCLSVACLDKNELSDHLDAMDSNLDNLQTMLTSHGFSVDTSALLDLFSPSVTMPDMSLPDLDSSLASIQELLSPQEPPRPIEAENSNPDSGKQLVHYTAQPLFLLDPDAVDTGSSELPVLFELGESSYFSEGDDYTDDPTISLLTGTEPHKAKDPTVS

Major prion protein = Major prion protein (Homo sapiens, UniProt P04156); format: functional, cell-based
cells [5] = assay: cells; remark: listed apart in the source
cells [6] = format: functional, cell-based
[7] = molecular target: T2, Nuclear receptor subfamily 0 group B member 1 (Homo sapiens, UniProt P51843); format: functional, cell-based;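 also: HEK293T cells transfected with SF-1 and DAX-1 plus StAR promoter luciferase reporter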
T2 sequence (P51843 whole entry): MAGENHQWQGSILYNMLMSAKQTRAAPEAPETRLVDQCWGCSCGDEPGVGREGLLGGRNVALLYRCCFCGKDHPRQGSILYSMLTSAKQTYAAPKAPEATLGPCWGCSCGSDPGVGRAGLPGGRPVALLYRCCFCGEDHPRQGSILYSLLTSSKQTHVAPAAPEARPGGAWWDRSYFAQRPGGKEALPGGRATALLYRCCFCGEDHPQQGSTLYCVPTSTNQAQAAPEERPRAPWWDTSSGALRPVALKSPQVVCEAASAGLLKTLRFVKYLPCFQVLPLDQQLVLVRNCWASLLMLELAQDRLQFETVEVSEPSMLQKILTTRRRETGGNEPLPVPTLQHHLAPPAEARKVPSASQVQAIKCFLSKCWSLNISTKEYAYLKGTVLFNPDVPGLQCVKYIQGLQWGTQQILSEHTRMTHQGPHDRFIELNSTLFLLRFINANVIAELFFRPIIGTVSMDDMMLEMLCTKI

[8] = LGR2 antagonists, dose response, cell-based, HEK293, CRE-luciferase reporter, cherry pick, set 2 (AID 743343); format: functional;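 also: transfected cells were stimulated with diluted bursicon conditioned medium after compound addition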
[9] = MC4R antagonists, dose response, counter-screen for LGR2 antagonist project, cell-based, plate reader, cherry pick (AID 743444); format: functional;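 also: transfected HEK 293 cells stimulated with alpha-MSH peptide; potency of inhibitors of the alpha-MSH evoked signal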
[10] = HEK293 cell cytotoxicity, dose response, cytotoxicity control, plate reader, cherry-picked samples (AID 743446); format: functional, cell-based
Protein Tat = molecular target: T3, Protein Tat (Human immunodeficiency virus type 1 group M subtype B (isolate HXB2)(HIV-1), UniProt P04608); format: functional;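 also: tat binding to TAR RNA read out by fluorescence polarization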
T3 sequence (P04608 whole entry): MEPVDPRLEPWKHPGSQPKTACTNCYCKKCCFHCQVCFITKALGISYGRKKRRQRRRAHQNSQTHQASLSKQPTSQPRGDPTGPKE

[11] = P. falciparum 3D7-ScDHODH growth inhibitors, dose response, SYBR Green, dry powder samples (AID 1159570); format: functional, cell-based;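 also: parasite growth measured after 72 hours of compound exposure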
[12] = HepG2 cell cytotoxicity, dose response, cytotoxicity control, plate reader, dry powder samples (AID 1159569); format: functional, cell-based;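 also: inhibitor potency with signal falling toward the positive control level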
[13] = P. falciparum Dd2 growth inhibitors, dose response, SYBR Green, cherry-picked samples (AID 1159567); format: functional, cell-based
[14] = P. falciparum Dd2 growth inhibitors, dose response, SYBR Green, dry powder samples (AID 1159566); format: functional, cell-based;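 also: potency for growth inhibition with lower SYBR green DNA signal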
[15] = P. falciparum ATP4 D1247Y mutant growth inhibitors, dose response, NITD609-resistant line, SYBR Green, dry powder (AID 1159571); format: functional, cell-based;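 also: parasites synchronized at ring stage by sorbitol before testing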
cells [16] = format: functional, cell-based; remark: listed apart in the source
cells [17] = format: functional, cell-based; remark: listed apart in the source
[18] = Concentration-dependent survival of SW480 colon cancer line, luminescence detection with CellTiter-Glo, half-maximal inhibitory concentration (AID 1117338); format: functional
[19] = RKO cell viability reduction, dose response, CellTiter-Glo luminescence (AID 1117322); format: functional
[20] = cytotoxicity toward HCT116 cells – cell-based, CellTiter-Glo luminescence, IC50, dose response (AID 1117332); format: functional; conditions: HCT-116
[21] = SNU-C1 cell viability reduction, dose response, CellTiter-Glo luminescence (AID 1117323); format: functional, cell-based
[22] = cytotoxicity toward Colo320 cells – cell-based, CellTiter-Glo luminescence, IC50, dose response (AID 1117334); format: functional; conditions: COLO 320
[23] = cytotoxicity toward HT-29 cells – cell-based, CellTiter-Glo luminescence, IC50, dose response (AID 1117330); format: functional
[24] = CellTiter-Glo luminescent dose response of DLD-1 viability loss (AID 1117352); format: functional
[25] = HCT116 cell viability decrease, GSK3B pretreatment – CellTiter-Glo, IC50, dose response (AID 1117339); format: functional; conditions: HCT-116
[26] = molecular target: T4, Long-chain-fatty-acid--AMP ligase FadD28 (Mycobacterium tuberculosis, UniProt P9WQ59); assay: Fluorescence polarization aasay to screen for inhibitors that compete for the binding of FadD28 to a bisubstrate Measured in Biochemical System Using Plate Reader - 2147-01_Inhibitor_Dose_CherryPick_Activity.; format: functional, Mycobacterium tuberculosis H37Rv
T4 sequence (P9WQ59 whole entry): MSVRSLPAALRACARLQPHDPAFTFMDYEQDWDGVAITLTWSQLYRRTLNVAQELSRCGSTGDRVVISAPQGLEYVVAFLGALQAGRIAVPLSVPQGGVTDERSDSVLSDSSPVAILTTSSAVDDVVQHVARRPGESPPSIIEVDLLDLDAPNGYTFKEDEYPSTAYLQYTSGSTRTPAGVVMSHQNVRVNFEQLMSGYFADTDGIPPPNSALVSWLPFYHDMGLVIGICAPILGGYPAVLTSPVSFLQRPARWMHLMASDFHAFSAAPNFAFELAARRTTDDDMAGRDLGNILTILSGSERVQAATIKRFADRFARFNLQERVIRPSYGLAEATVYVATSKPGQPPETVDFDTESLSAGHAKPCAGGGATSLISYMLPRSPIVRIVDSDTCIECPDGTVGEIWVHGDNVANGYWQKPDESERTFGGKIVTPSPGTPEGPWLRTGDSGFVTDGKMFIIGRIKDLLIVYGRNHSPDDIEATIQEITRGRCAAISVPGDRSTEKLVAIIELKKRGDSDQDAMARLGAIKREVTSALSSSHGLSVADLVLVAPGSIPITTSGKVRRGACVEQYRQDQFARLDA

Cytochrome P450 2D6 = Cytochrome P450 2D6 (Homo sapiens, UniProt P10635);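 also: CYP2D6 member of a cytochrome P450 panel assay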
Cytochrome P450 3A4 = Cytochrome P450 3A4 (Homo sapiens, UniProt P08684);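 also: CYP3A4 tested as one member of a cytochrome P450 panel screen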
Large T antigen = Large T antigen (Simian virus 40, UniProt P03070); format: functional, Betapolyomavirus macacae;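 also: Confirmatory-stage PubChem screen for compounds that inhibit SV40 T antigen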
[27] = THP-1 cell cytotoxicity, dose response, cytotoxicity control for Vif-APOBEC3G degradation inhibitor project, THP-1 cells (AID 1117359); format: functional; conditions: Human immunodeficiency virus 1, THP-1
Escherichia coli = assay: microbe, parasite or virus in culture

## O=c1c2cc(N3CCOCC3)ccc2[nH]c(=S)n1CCCN1CCCCC1
Kallikrein-7
  EC50: 29.7 µM (inactive)

## COC(=O)c1ccc(COC(=O)CNS(=O)(=O)c2ccccc2)cc1
Prothrombin
  IC50: > 50 µM (not active)

## COc1ccc(N(C(=O)c2ccco2)S(=O)(=O)c2ccccc2)cc1
Prothrombin
  IC50: 4.64 µM (active)

## CN(C)CCN(C(=O)c1ccc(S(=O)(=O)N(C)C)cc1)c1nc2cc3c(cc2s1)OCCO3
[1]
  EC50: < 0.1 µM (active)
[2]
  EC50: > 30 µM (not active)
Cells [3]
  EC50: 0.069 µM (active)

## OC1CCN(Cc2cccc(Oc3ccccc3)c2)CC1
[4]
  EC50: > 195 µM (not active)
[1]
  EC50: < 0.1 µM (active)
[2]
  EC50: > 30 µM (not active)
Cells [3]
  EC50: 0.073 µM (active)

## COc1ccc(-c2nc3c(C)cc(Br)cn3c2Cc2cccc(Cl)c2)cc1OC
Major prion protein
  IC50: 7.52 µM (active)
Cells [5]
  IC50: > 138 µM (inactive)

## Cc1cc(C(=O)CSc2nnc(N)s2)c(C)n1Cc1cccs1
Cells [6]
  IC50: > 67.5 µM (inactive)
[7]
  IC50: > 0.278 µM (active)
[8]
  AC50: 3.93 µM (active)
[9]
  AC50: 4.27 µM (active)
[10]
  AC50: > 52 µM (inactive)

## CC1=C(C#N)C(=O)N(C)C(C)(C)C1
Protein Tat
  IC50: > 100 µM (active)

## CN(C)C(=O)c1cccc(-c2cccc(-c3nc(C(=O)NC4CCCCC4)cc4c3[C@@H](CCO)N([S@+]([O-])C(C)(C)C)C4)c2)c1
[11]
  AC50: 0.806 µM (active)
[12]
  AC50: 31.4 µM (active)
[13]
  AC50: 1.62 µM (active)
[14]
  AC50: 0.232 µM (active)
[15]
  AC50: 0.484 µM (active)

## COc1ccc(S(=O)(=O)N2CCOCC2)cc1NC(=O)CSc1ncnc2ccccc12
Major prion protein
  IC50: 2.66 µM (active)
Cells [5]
  IC50: > 138 µM (inactive)

## Cc1oc2c(c(C)cc3oc(=O)c(CC(=O)N[C@@H](CCCNC(N)=O)C(=O)O)c(C)c32)c1C
Kallikrein-7
  EC50: 69.3 µM (inactive)

## O=C(Nc1cccc(F)c1)N1CCCCN2[C@@H](CO)[C@H](c3ccc(C#Cc4cccnc4)cc3)[C@@H]2C1
[11]
  AC50: 0.247 µM (active)
[12]
  AC50: 28.4 µM (active)
[13]
  AC50: 0.606 µM (active)
[14]
  AC50: 0.368 µM (active)
[15]
  AC50: 0.425 µM (active)

## Cc1cc(C)c2c3c(sc2n1)C(c1cccc(F)c1)C(C#N)=C(N)O3 (stereo unspecified)
[1]
  EC50: 0.191 µM (active)
Prothrombin
  IC50: > 50 µM (not active)
[2]
  EC50: > 30 µM (not active)

## c1ccc(N/N=C(\Cc2ncc[nH]2)c2ccccc2)cc1
Cells [16]
  IC50: > 29.9 µM (inactive)
Cells [17]
  EC50: > 29.9 µM (inactive)

## CCCCCCCCCCCCCCCCC(C(=O)O)C(O)(CC(=O)O)C(=O)O (stereo unspecified)
[18]
  IC50: 1.2 µM (active)
[19]
  IC50: 3.48 µM (active)
[20]
  IC50: 8.68 µM (inactive)
[21]
  IC50: 1.36 µM (active)
[22]
  IC50: 1.36 µM (active)
[23]
  IC50: 4.1 µM (active)
[24]
  IC50: 4.28 µM (active)
[25]
  IC50: 4.34 µM (active)

## COc1ccc(OC)c(C2NC(=O)N(C)C(C)=C2C(=O)OCc2ccccc2)c1 (stereo unspecified)
Major prion protein
  IC50: 6.04 µM (active)
Cells [5]
  IC50: > 138 µM (inactive)

## O=C(COC(=O)c1cccc(NS(=O)(=O)c2ccc(F)c(F)c2)c1)NC(=O)NC1CCCCC1
[26]
  AC50: 19.9 µM (active)

## COc1ccc(NC(=O)c2ccc(S(=O)(=O)N3CC(C)CC(C)C3)cc2)cc1S(N)(=O)=O (stereo unspecified)
Kallikrein-7
  EC50: 14.7 µM (inactive)

## Cc1ccc(CCN2CC(C(=O)NCCCN(C)Cc3ccccc3)CC2=O)cc1 (stereo unspecified)
[1]
  EC50: < 0.1 µM (active)
[2]
  EC50: 15.8 µM (active)
Cytochrome P450 2D6
  AC50: 14.1 µM (inconclusive)
Cytochrome P450 3A4
  AC50: 31.6 µM (inconclusive)
Cells [3]
  EC50: 0.033 µM (active)

## CCc1c(O)n(-c2ccccc2)c(SCC(=O)Nc2nc3ccccc3s2)nc1=O
[26]
  AC50: > 100 µM (inactive)

## Cc1c(NC(=O)CN2CCN(c3ccc(O)cc3)CC2)c(=O)n(-c2ccccc2)n1C
Large T antigen
  IC50: 13.7 µM (active)
Protein Tat
  IC50: > 100 µM (active)
[27]
  CC50: > 40 µM (active)
Escherichia coli
  AC50: 38.1 µM (active)

## COCC(C)N(C(=O)CCl)c1c(C)csc1C (stereo unspecified)
[18]
  IC50: > 20 µM (inactive)
[19]
  IC50: > 20 µM (inactive)
[20]
  IC50: > 20 µM (inactive)
[21]
  IC50: > 20 µM (inactive)
[22]
  IC50: > 20 µM (inactive)
[23]
  IC50: > 20 µM (inactive)
[24]
  IC50: > 20 µM (inactive)
[25]
  IC50: > 20 µM (inactive)

— ChEMBL document CHEMBL1201862, “PubChem BioAssay data set” (2004)
